Counter-ions that a name gives are not always drawn. Like-named read-outs stand apart in the source and are kept apart here.
How the values were obtained:
[1] = tested on: EVSA-T (human breast carcinoma); test: Anti-proliferative activity, Alamar Blue assay, EVSA-T; format: cell-based; conditions: Homo sapiens, EVSA-T, 72 h, read-out: EVSA-T prolif (EC50)
[2] = molecular target: BIR3 domain of human XIAP (residues 252-350) (Homo sapiens (Human), UniProt P98170); test: XIAP in vitro competitive displacement binding assay (fluorescence polarization); conditions: for IC50: read-out: IC50 or PI Xiap: IC50
[3] = molecular target: BIR3 domain of human cIAP-1 (residues 267-363) (Homo sapiens (Human), UniProt Q13490); test: cIAP-1 in vitro competitive displacement binding assay (fluorescence polarization; Probe A AVPIK(5&6FAM)-amide or Probe B AbuRPFK(5&6FAM)-amide)
[4] = Probe B AbuRPFK(5&6FAM)-amide, read-out: IC50 or PI cIAP1: IC50
[5] = 1 h, read-out: IC50 or PI Xiap: PI
[6] = read-out: IC50 or PI cIAP1: IC50

SMILES | IC50 [2] | IC50 [3, 4] | further results
C[C@@H]1CN(CC(=O)N2CC(C)(C)c3ncc(C(F)(F)c4ccccc4)cc32)[C@@H](CN2CCCC2=O)CN1 [Example 210, 1-{[(2R,5R)-1-(2-{6-[Difluoro(phenyl)methyl]-3,3-dimethyl-1H,2H,3H-pyrrolo[3,2-b]pyridin-1-yl}-2-oxoethyl)-5-methylpiperazin-2-yl]methyl}pyrrolidin-2-one hydrochloride] | – | – | EC50 [1]: 54 nM
CCCC(F)(F)c1cnc2c(c1)N(C(=O)CN1C[C@@H](C)NC[C@@H]1CN1CCCC1=O)CC2(C)C [Example 217, 1-{[(2R,5R)-1-{2-[6-(1,1-Difluorobutyl)-3,3-dimethyl-1H,2H,3H-pyrrolo[3,2-b]pyridin-1-yl]-2-oxoethyl}-5-methylpiperazin-2-yl]methyl}pyrrolidin-2-one hydrochloride] | – | – | EC50 [1]: 50 nM
COC[C@H]1CN[C@H](C)CN1CC(=O)N1CC(C)(C)c2cnc(C(OC)c3ccccc3)cc21 (stereo partly drawn) [Example 132, 1-{6-[Methoxy(phenyl)methyl]-3,3-dimethyl-1H,2H,3H-pyrrolo[3,2-c]pyridin-1-yl}-2-[(2R,5R)-2-(methoxymethyl)-5-methylpiperazin-1-yl]ethan-1-one dihydrochloride] | – | – | EC50 [1]: 660 nM
C[C@@H]1CN(CC(=O)N2CC(C)(C)c3ccc(Cc4ccccc4)cc32)[C@@H](CO)CN1 [Example 42, 1-(6-Benzyl-3,3-dimethyl-2,3-dihydro-indol-1-yl)-2-((2R,5R)-2-hydroxymethyl-5-methyl-piperazin-1-yl)-ethanone trifluoroacetate salt] | – | – | EC50 [1]: 2600 nM
COC[C@H]1CN[C@H](C)CN1CC(=O)N1CC(C)(C)c2cnc(CCC(C)C)cc21 [Example 75, 1-[3,3-Dimethyl-6-(3-methyl-butyl)-2,3-dihydro-pyrrolo[3,2-c]pyridin-1-yl]-2-((2R,5R)-2-methoxy-methyl-5-methyl-piperazin-1-yl)-ethanone] | – | – | EC50 [1]: 500 nM
COC[C@H]1CN[C@H](C)CN1CC(=O)N1CC(C)(C)c2ccc(-c3nnn[nH]3)cc21 [Example 258, 1-[3,3-Dimethyl-6-(1H-tetrazol-5-yl)-2,3-dihydro-indol-1-yl]-2-((2R,5R)-2-methoxymethyl-5-methyl-piperazin-1-yl)-ethanone hydrochloride] | – | – | inhibition at 10 µM [2, 5]: 58%; inhibition at 30 µM ([3]; 3 h, Probe B, @ 30 μM, read-out: IC50 or PI cIAP1: PI): 37%
C[C@@H]1CN(CC(=O)N2CC(C)(C)c3cc(F)c(S(=O)(=O)C4CC4)cc32)CCN1 [Example 57, 1-(6-Cyclopropane-sulfonyl-5-fluoro-3,3-dimethyl-2,3-dihydro-indol-1-yl)-2-((R)-3-methyl-piperazin-1-yl)-ethanone dihydrochloride salt] | 810 nM | – | IC50 [3, 6]: 2000 nM
CCS(=O)(=O)c1cc2c(cc1F)C(C)(C)CN2C(=O)CN1CCN[C@H](C)C1 [Example 51, 1-(6-Ethanesulfonyl-5-fluoro-3,3-dimethyl-2,3-dihydro-indol-1-yl)-2-((R)-3-methyl-piperazin-1-yl)-ethanone dihydrochloride salt] | 1100 nM | – | IC50 [3, 6]: 3200 nM
C[C@@H]1CN(CC(=O)N2CCc3ccc(C(=O)N4CCCC4)cc32)CCN1 [Example 18, 2-((R)-3-Methyl-piperazin-1-yl)-1-[6-(pyrrolidine-1-carbonyl)-2,3-dihydro-indol-1-yl]-ethanone] | – | – | inhibition at 49 µM ([2]; 1 h, @ 49 μM, read-out: IC50 or PI Xiap: PI): 47%; inhibition at 49 µM ([3]; 3 h, Probe A, @ 49 μM, read-out: IC50 or PI cIAP1: PI): 43%
C[C@@H]1CN(CC(=O)N2CCc3cccnc32)CCN1 [Example 36, 1-(2,3-Dihydro-pyrrolo[2,3-b]pyridin-1-yl)-2-((R)-3-methyl-piperazin-1-yl)-ethanone dihydrochloride salt] | 240000 nM | – | inhibition at 500 µM ([3]; 3 h, read-out: IC50 or PI cIAP1: PI): 56%
COC[C@H]1CN[C@H](C)CN1CC(=O)N1CC(C)(C)c2cc(=O)n(C)cc21 [Example 66, 1-[2-((2R,5R)-2-Methoxymethyl-5-methyl-piperazin-1-yl)-acetyl]-3,3,6-trimethyl-1,2,3,6-tetrahydro-pyrrolo[2,3-c]pyridin-5-one hydrochloride salt] | – | – | inhibition at 10 µM [2, 5]: 44%; inhibition at 3 µM ([3]; 3 h, Probe B, @ 3 μM, read-out: IC50 or PI cIAP1: PI): 53%

More lines, main results first:

IC50 [2] | IC50 [3, 4] | SMILES | further results
14000 nM | 15000 nM | C[C@@H]1CN(CC(=O)N2CC3(CCCC3)c3ccc(Cl)cc32)CCN1 [Example 50, 1-{6′-Chloro-1′,2′-dihydrospiro[cyclopentane-1,3′-indole]-1′-yl}-2-[(3R)-3-methyl-piperazin-1-yl]ethan-1-one hydrochloride salt] | –
3200 nM | 650 nM | COC[C@H]1CN[C@H](C)CN1CC(=O)N1CC(C)(C)c2cnc(N3CCCC3=O)cc21 [Example 102, 1-(1-{2-[(2R,5R)-2-(Methoxymethyl)-5-methylpiperazin-1-yl]acetyl}-3,3-dimethyl-1H,2H,3H-pyrrolo[3,2-c]pyridin-6-yl)pyrrolidin-2-one, hydrochloride salt] | IC50 [3]: < 1000 nM
6000 nM | 1300 nM | COC[C@H]1CN[C@H](C)CN1CC(=O)N1CC(C)(C)c2cc(OC)ncc21 [Example 65, 1-(5-Methoxy-3,3-dimethyl-2,3-dihydro-pyrrolo[2,3-c]pyridin-1-yl)-2-((2R,5R)-2-methoxymethyl-5-methyl-piperazin-1-yl)-ethanone hydrochloride salt] | –
7400 nM | – | C[C@@H]1CN(CC(=O)N2CCc3cc(F)c(-c4ccccc4)cc32)CCN1 [Example 24, 1-(5-Fluoro-6-phenyl-2,3-dihydro-indol-1-yl)-2-((R)-3-methyl-piperazin-1-yl)-ethanone hydrochloride salt] | IC50 [3]: < 10000 nM; IC50 ([3]; Probe A AVPIK(5&6FAM)-amide, read-out: IC50 or PI cIAP1: IC50): 2000 nM
780 nM | 590 nM | COC[C@H]1CN[C@H](C)CN1CC(=O)N1CC(C)(C)c2cc(C)c(C#N)cc21 [Example 134, 1-{2-[(2R,5R)-2-(Methoxymethyl)-5-methylpiperazin-1-yl]acetyl}-3,3,5-trimethyl-2,3-dihydro-1H-indole-6-carbonitrile] | –
72 nM | 260 nM | C[C@@H]1CN(CC(=O)N2C[C@](C)(c3ccccc3)c3ccc(C#N)cc32)[C@@H](Cn2cccn2)CN1 [Example 155, (3R)-3-Methyl-1-{2-[(2R,5R)-5-methyl-2-(1H-pyrazol-1-ylmethyl)piperazin-1-yl]acetyl}-3-phenyl-2,3-dihydro-1H-indole-6-carbonitrile] | –
640 nM | 330 nM | C[C@@H]1CN(CC(=O)N2CC(C)(C)c3ccc(Cl)cc32)[C@@H](Cn2cccn2)CN1 [Example 138, 1-(6-Chloro-3,3-dimethyl-2,3-dihydro-1H-indol-1-yl)-2-[(2R,5R)-5-methyl-2-(1H-pyrazol-1-ylmethyl)piperazin-1-yl]ethan-1-one hydrochloride] | –
1700 nM | 630 nM | COC[C@H]1CN[C@H](C)CN1CC(=O)N1CC(C)(C)c2nnc(Cl)cc21 [Example 183, 1-{3-Chloro-7,7-dimethyl-5H,6H,7H-pyrrolo[3,2-c]pyridazin-5-yl}-2-[(2R,5R)-2-(methoxymethyl)-5-methylpiperazin-1-yl]ethan-1-one hydrochloride] | IC50 [3]: < 1000 nM
1500 nM | 1300 nM | COC[C@H]1CN[C@H](C)CN1CC(=O)N1CC(C)(c2ccccn2)c2ccc(C#N)cc21 (mixture of isomers) [Example 156, 1-{2-[(2R,5R)-2-(Methoxymethyl)-5-methylpiperazin-1-yl]acetyl}-3-methyl-3-(pyridin-2-yl)-2,3-dihydro-1H-indole-6-carbonitrile hydrochloride [mixture of diastereoisomers]] | –
